“Also recorded” adds a separate entry of the source.
Experiments:
Format in all cases: cell-based, human
[1] = test system: peptide-pulsed C1R-A33 cells; assay: IFN-gamma ELISPOT assay of peptide-induced CTLs (HLA-A*3303); settings: CTLs induced from HLA-A*3303-positive donors, peptide-pulsed C1R-A33 vs control
Excerpt: (§1) Monocyte-derived dendritic cells (DCs) were used as the antigen-presenting cell to induce a cytotoxic T lymphocyte (CTL) response against peptides presented on human leukocyte antigens (HLAs). As described in the other sections, DCs were generated in vitro (Nakahara S et al., Cancer Res 2003, 63(14): 4112-8). Specifically, peripheral-blood mononuclear cells isolated from healthy volunteers (HLA-A*3303-positive) with the Ficoll-Paque plus solution (Pharmacia) were separated by attaching to plastic tissue culture dishes (Becton Dickinson) and concentrated as a monocyte fraction. The monocyte-concentrated population was cultured in the presence of 1000 IU/ml granulocyte macrophage colony-stimulating factor (R&D System) and 1000 IU/ml interleukin(IL)-4 (R&D System) in an AIM-V medium (Invitrogen) containing 2% heat-inactivated autologous serum (AS). After seven days of culturing, the cytokine-induced DCs were pulsed with 20 micro-g/ml each of the synthesized peptides in an AIM-V medium at 37 degrees C. for three hours in the presence of 3 micro-g/ml beta 2-microglobulin. The generated cells appeared to express on their cell surface DC-associated molecules such as CD80, CD83, CD86 and HLA class II (data not shown). Next, these peptide-pulsed DCs were inactivated by X-ray irradiation (20 Gy), and mixed in a 1:20 ratio with autologous CD8^+ T cells obtained by positive selection using the CD8 Positive Isolation Kit (Dynal). These culture products were seeded in a 48-well plate (Corning). Each well was made to contain 1.5×10^4 peptide-pulsed DCs, 3×10^5 CD8^+ T cells and 10 ng/ml IL-7 (R&D System) in 0.5 ml of the AIM-V/2% AS medium. Three days later, these culture products were added with a final concentration of 20 IU/ml IL-2 (CHIRON). On day 7 and day 14, T cells were further stimulated with peptide-pulsed autologous DCs. The DCs were prepared every time by the same method as above. On day 21, after the third peptide stimulation, CTLs were examined against the peptide-pulsed CIR-A33 cell by a human interferon (IFN)-gamma enzyme-linked immunospot (ELISPOT) assay (Tanaka H et al., Br J Cancer 2001, 84(1): 94-9; Umano Y et al., Br J Cancer 2001, 84(8): 1052-7; Uchida N et al., Clin Cancer Res 2004, 10(24): 8577-86; Suda T et al., Cancer Sci 2006, 97(5): 411-9; Watanabe T et al., Cancer Sci 2005, 96(8): 498-506).
(§2) Specifically, peptide-pulsed C1R-A33 (1×10^4 cells/well) was prepared as the stimulator cell. The induced CTLs, i.e., CTL lines and CTL clones, were used as the responder cell. The IFN-gamma ELISPOT assay and IFN-gamma ELISA were performed according to the manufacturer's manual.

peptide-pulsed C1R-A33 = assay: IFN-gamma ELISA of CTL lines and CTL clones (HLA-A*3303); settings: for IFN-gamma production of CTL lines: peptide-pulsed vs non-pulsed target cells, HLA-A*3303
Description: (§3) CTLs were propagated in culture using methods similar to those disclosed by Riddell et al. (Walter E A et al., N Engl J Med 1995, 333(16): 1038-44; Riddell S R et al., Nat Med 1996, 2(2): 216-23). The CTLs were co-cultured in a total of 25 ml AIM-V medium containing 5% AS (AIM-V/5% AS) and 40 ng/ml anti-CD3 antibody with two types of Mitomycin C-treated human B lymphoblastoid cell lines at 5×10^6 cells/flask. One day after beginning of the culturing, 120 IU/ml IL-2 was added to the culture. On days 5, 8 and 11, a fresh AIM-V/5% AS medium containing 30 IU/ml IL-2 was added to the culture (Tanaka H et al., Br J Cancer 2001, 84(1): 94-9; Umano Y et al., Br J Cancer 2001, 84(8): 1052-7; Uchida N et al., Clin Cancer Res 2004, 10(24): 8577-86; Suda T et al., Cancer Sci 2006, 97(5): 411-9; Watanabe T et al., Cancer Sci 2005, 96(8): 498-506).
(§4) Dilution of CTLs was carried out to make 0.3, 1 and 3 cells/well in 96 round-bottomed microtiter plates (Nalge Nunc International). The CTLs were co-cultured with two types of Mitomycin C-treated human B lymphoblastoid cell lines at 1×10^4 cells/well in a total of 150 micro-l/well AIM-V/5% AS medium with 30 ng/ml anti-CD3 antibody and 125 IU/ml IL-2. Ten days later, IL-2 was added to the medium at 50 micro-l/well to reach a final concentration of 125 IU/ml. On day 14, the CTL activity was tested, and the CTL clones were propagated using the same method as described above (Uchida N et al., Clin Cancer Res 2004, 10(24): 8577-86; Suda T et al., Cancer Sci 2006, 97(5): 411-9; Watanabe T et al., Cancer Sci 2005, 96(8): 498-506).
as §2

[2] = test system: peptide-pulsed C1R-A11 cells; assay: IFN-gamma ELISPOT assay of peptide-induced CTLs (HLA-A*1101); settings: CTLs induced from HLA-A*1101-positive donors, peptide-pulsed C1R-A11 vs control
Excerpt: as §1, with “(HLA-A*1101-positive)” for “(HLA-A*3303-positive)”, “C1R-A11 cells” for “CIR-A33 cell”
(§5) Specifically, peptide-pulsed C1R-A11 (1×10^4 cells/well) was prepared as the stimulator cell. The induced CTLs, i.e., CTL lines and CTL clones, were used as the responder cell. The IFN-gamma ELISPOT assay and IFN-gamma ELISA were performed according to the manufacturer's manual.

peptide-pulsed C1R-A11 = assay: IFN-gamma ELISA of CTL lines and CTL clones (HLA-A*1101); settings: for IFN-gamma production of CTL clones: CTL clones by limiting dilution; for IFN-gamma production of CTL lines: peptide-pulsed vs non-pulsed target cells, HLA-A*1101
Description: as §3, §4, §5

Sequence	peptide-specific CTL activity (IFN-gamma production) [1]	IFN-gamma production of CTL lines (peptide-pulsed C1R-A33)	IFN-gamma production of CTL lines (peptide-pulsed C1R-A11)	further results
DILCPKAKR (a peptide derived from CDCA1) [SEQ ID NO: 60]	potent IFN-gamma production	–	–	–
DTVQKLKNAR (a peptide derived from CDCA1) [SEQ ID NO: 69]	potent IFN-gamma production	potent IFN-gamma production	–	–
ETADILCPK (a peptide derived from CDCA1) [SEQ ID NO: 5]	potent IFN-gamma production	–	potent IFN-gamma production	peptide-specific CTL activity (IFN-gamma production) ([2]; listed as CDCA1-A11-9-105): potent IFN-gamma production; also recorded: significant specific CTL activity; IFN-gamma production of CTL clones (peptide-pulsed C1R-A11; peptide-pulsed C1R-A11, listed as CDCA1-A11-9-105): Potent IFN-gamma production
GIINFIHFR (a peptide derived from CDCA1) [SEQ ID NO: 3]	potent IFN-gamma production	potent IFN-gamma production	potent IFN-gamma production	IFN-gamma production of CTL clones (peptide-pulsed C1R-A33; CTL clones by limiting dilution, peptide-pulsed C1R-A33, listed as CDCA1-A33-9-123): Potent IFN-gamma production; peptide-specific CTL activity (IFN-gamma production) ([2]; listed as CDCA1-A11-9-123): potent IFN-gamma production; also recorded: significant specific CTL activity
NVAEIVIHIR (a peptide derived from CDCA1) [SEQ ID NO: 67]	potent IFN-gamma production	potent IFN-gamma production	–	–
SGIINFIHFR (a peptide derived from CDCA1) [SEQ ID NO: 68]	–	–	–	peptide-specific CTL activity (IFN-gamma production) ([1]; listed as CDCA1-A33-10-122): no specific IFN-gamma production; also recorded: specific IFN-gamma production was not observed
SQEIFLNLK (a peptide derived from CDCA1) [SEQ ID NO: 6]	–	–	potent IFN-gamma production	peptide-specific CTL activity (IFN-gamma production) ([2]; listed as CDCA1-A11-9-419): potent IFN-gamma production; also recorded: significant specific CTL activity; IFN-gamma production of CTL clones (peptide-pulsed C1R-A11; peptide-pulsed C1R-A11, listed as CDCA1-A11-9-419): Potent IFN-gamma production
TVQKLKNAR (a peptide derived from CDCA1) [SEQ ID NO: 28]	potent IFN-gamma production	–	–	–

From patent US10676514B2, “CDCA1-derived peptide and vaccine containing same” (ONCOTHERAPY SCIENCE, INC., priority 2014, dated 2020)
